Drawing on a melting point compilation (Tetko et al.; mined from patent text by program, amines drawn as free bases though some values may be those of a salt), this text covers melting point for 34 compounds.

Usually melting point stands for the temperature, or range, at which the solid turns liquid. Compound `CCOC(=O)c1cn(C)c2cc(Br)ccc2c1=O` had a melting point of 189 to 191 °C.
Next, `COc1cccc2c1nc(C(F)F)n2-c1nc(Nc2ccc(NS(C)(=O)=O)nc2)nc(N2CCOCC2)n1`: 302 to 306 °C; `Cc1c(CC(=O)O)c2cc3c(cc2n1C(=O)C=Cc1ccccc1)OCO3`: 190 to 191 °C.
`CCCSc1cc2c(c3c1OC(C)(C)C3)C(c1cccc(C(=O)OCC)c1)=NC(C)(C)C2` yielded a melting point of 83 to 84 °C.
With `COc1ccccc1OCCOS(C)(=O)=O` the figure was 73 to 76 °C; with `COCN1C(C)=C(C(=O)OC)C(c2ccccc2C(F)(F)F)C(C(=O)OCOC(=O)C(C)(C)C)=C1C` (single isomer, unassigned; (+)), 110 to 112 °C.
With `CCCc1c(OCCCOc2ccc(NC(=O)C(=O)O)cc2OC)ccc(C(C)=O)c1O` the figure was 125 to 127 °C.
The compound `Nc1ncnc2c1c(-c1ccc(Oc3ccccc3)cc1)cn2CCO` displayed a melting point of 144 to 145 °C.
In the case of `COC(=O)c1ccccc1OCCOc1cccc2oc(-c3ccccc3)cc(=O)c12`, the melting point was 160 to 161 °C.
With `Cc1ccccc1Nc1c([N+](=O)[O-])cnc2ccccc12` the figure was 137 to 138 °C; with `COc1ncnc(OC)c1N`, 94 to 96 °C.
With `COc1cccc(/C=C/C(=O)N2CC(CCl)c3c2cc(N)c2ccccc32)c1` (centres undefined) the figure was above 200 °C.
With `CC(C)c1ccc(N(C)C(=O)Cn2cnc3c2c(=O)n(C)c(=O)n3C)cc1` the figure was 231 to 233 °C.
In turn, `O=C1c2cc(CCCCOC(=O)C(F)(F)F)ccc2OCc2ccsc21` displayed a melting point of 65.5 to 67 °C.
In turn, `CCc1cc(C)cc(CC)c1C1C(=O)C2=CC(COCOC)CC2C1=O` (centres undefined) yielded a melting point of 155 to 156 °C.
With `C=CCN1C(=S)N(c2cccc(Oc3ccccc3)c2)C(=O)C1C` (centres undefined) the figure was 88 °C; with `CCCn1c(C)nn(-c2ccc(N)cc2)c1=O`, 139 °C.
Next, `O=[N+]([O-])c1cc(I)ccc1Nc1cccc(-n2cccn2)c1`: 165 to 166 °C.
With `Cc1c[nH]c(C)c1-c1nc2ccc(C(=O)c3ccccc3)cc2[nH]1` the figure was 207 to 214 °C; with `O=[N+]([O-])c1ccc(OC2SCC(O)C(O)C2O)cc1` (centres undefined), 130 to 132 °C; with `C[C@H](NC(=O)OCc1ccccc1)C(=O)N1CCC[C@H]1C(=O)NC1CCCCCCC1`, 94 to 96 °C.
For the compound `CCCCCCCCCCCCCCCCCCNS(=O)(=O)c1cccc(C(F)(F)F)c1`, the melting point fell in the range of 83 to 85 °C.
The compound `Cc1cc(-c2ccccc2)nn1C(C)C(=O)N(C)C` (centres undefined) came in with a melting point of 98 to 99 °C.
Next, `CCOC(=O)Cn1c(=O)[nH]c(=O)c2ccccc21`: 249 to 250 °C; `CCNC(=O)[C@@H]1CCCN1C(=O)[C@H](C)NC(=O)OCC`: 126 to 128 °C.
In the case of `O=C1NC(=O)C(Cc2ccc(N3CCC(NC[C@H](O)c4csc(C(F)(F)F)n4)CC3)cc2)S1` (some centres undefined), the melting point lay in the range of 108 to 113 °C.
`COC(=O)c1ccc(C(O)c2cc3cc(C(F)(F)F)ccc3n2S(=O)(=O)c2ccc(C(C)C)cc2)cc1` (centres undefined): the melting point is 68 °C.
Next, `O=C(O)CN1C(=O)COc2cc(F)ccc21`: 183 to 184 °C; `COc1ccc(C2=NN(C3CCN(c4ncccn4)CC3)C(=O)[C@@H]3CC=CC[C@H]23)cc1OC`: 163 to 166 °C.
Next, `CCOP(=O)(Cc1ccc(NC(=O)C2=Cc3cc(C4CCCCC4)ccc3CC2)cc1)OCC`: 137 to 138 °C; `CCCCOc1cc([N+](=O)[O-])c(OCCCC)cc1N=NN1CCOCC1`: 79 to 81 °C; `OCc1ccc2c(Br)cccc2c1`: 76 to 77 °C.
Next, `O=C(Oc1ccccc1OC(=O)c1ccccc1)c1ccccc1`: 75 to 77 °C.
`Cc1nc2ccc3ccc(CNc4ccc(C(=O)O)c(F)c4)cc3c2c(=O)[nH]1` registered a melting point above 250 °C.
